Laboratory results taken from paper PMC8126637 (Frontiers in Molecular Biosciences, 2021).

Molecular target: T1, Universal stress protein (USP, Rv1636) (Mycobacterium tuberculosis, UniProt P9WFC9)
T1 construct: His-tagged Rv1636
Assay: biochemical
Type: binding

T1 sequence (P9WFC9 whole entry): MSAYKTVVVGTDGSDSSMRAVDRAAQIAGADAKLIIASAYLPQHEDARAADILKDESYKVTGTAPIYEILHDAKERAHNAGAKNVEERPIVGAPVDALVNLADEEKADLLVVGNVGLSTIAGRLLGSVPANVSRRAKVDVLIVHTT

| SMILES | Kd [µM] |
| --- | --- |
| COc1cc(/C=C/C(=O)CC(=O)/C=C/c2ccc(O)c(OC)c2)ccc1O [Curcumin] | 17.4 ± 0.8 |
| COc1cc2c(cc1OC)-c1cc(NCCCCN)nc(=O)n1CC2 [compound 19, 2-((4-aminobutyl)amino)-9,10-dimethoxy-6,7-dihydro-4H-pyrimido[6,1-a]isoquinolin-4-one] | 998 ± 82 |
| NC(=O)NCCC[C@@H](NC(=O)CCn1ccc2c(Cl)cccc21)C(=O)O [compound 20, (R)-2-(3-(4-chloro-1H-indol-1-yl)propanamido)-5-ureidopentanoic acid] | 1720 ± 731 |
